Data set [1] has as its target T1, IL-6 (Homo sapiens, UniProt P05231). In words: ELISA of IL-6 binding to anti-IL6 antibody after exposure to HOCl or HOBr. Conditions: IL-6 exposed for 5 minutes at concentrations >2 ppm, halogen quenched before incubation. On the procedure: An ELISA assay (Fisher Scientific) was used to detect binding changes between IL6 and anti-IL6 antibody binding in the presence of HOCl or HOBr. Anti-human IL6 antibody was immobilized to a polystyrene 96 well plate as the capture antibody. IL-6 was exposed to various concentrations of HOCl or HOBr for 5 minutes. The active halogen was quenched before incubation with the coated plate wells. A second anti-human IL6 antibody was introduced to the coated wells and served as a detector to an enzyme-mediated chromophore indicator system.
The inhibition of IL-6 reactivity by exposure to HOCl is illustrated in FIG. 1.
In general terms: ELISA stands for enzyme-linked immunosorbent assay.

Data set [2] addresses T1, IL-6. The data set is described as follows: IL-6 bioassay (Promega), luminescence in receptor-expressing human cells. In kind it is cell-based. On the procedure: An IL-6 bioassay (Promega) was used to determine the effect of HOCl on IL-6 binding to human cells triggering a change in luminescence. IL-6 was incubated with various concentrations of HOCl and quenched, before addition to the receptor-expressing human cells.
Binding of the cytokine was measured by luminescence.

Data set [3] has as its system mouse. Conditions: in vivo. The source says:
(§1) Experimental exposures of rodents were done according to OECD method 423 for acute oral toxicity assessment, OECD method 434 for acute dermal toxicity and OECD method 433 for acute inhalation.

In data set [4] the test system is mouse. Conditions: in vivo.
From the text: as §1
The source holds these as a separate data set.

For the next data set, the system named is human subjects. In words: Safety of human volunteers exposed to microaerosolized HOCl via inhalation. In kind it is in vivo. The following applies: dense microaerosols for 2-5 minutes, 400 episodes. On the procedure:
The safety of exposure of human subjects to microaerosolized pure stable HOCl via the respiratory route was evaluated.
Human volunteers were exposed to dense microaerosols of HOCl for periods of 2-5 minutes and submitted subjective reports of the outcomes of these experiences. Data on a total of 400 such episodes were collected under medical supervision.

Molecules are shown by their SMILES. Like-named read-outs stand apart in the source and are kept apart here.

T1 sequence (P05231 30-212): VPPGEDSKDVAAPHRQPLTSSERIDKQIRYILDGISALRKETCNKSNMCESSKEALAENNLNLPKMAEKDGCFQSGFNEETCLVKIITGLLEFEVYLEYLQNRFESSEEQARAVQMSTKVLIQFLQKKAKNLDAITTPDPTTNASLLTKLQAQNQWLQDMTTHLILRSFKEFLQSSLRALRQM

Regarding `OBr` [HOBr, Hypobromous acid], the “binding of IL-6 to the capture antibody” value at IL-6 [1] is “undetectable”.
With `OCl` [HOCl, hypochlorous acid], the “binding of IL-6 to the capture antibody” value on IL-6 [1] was “no detectable binding”. In addition, the “capacity of the cytokine to initiate transmembrane signaling” value on IL-6 [2] (IL-6 exposed to HOCl) was “complete inhibition”. Besides, the “luminescence of HOCl-treated IL-6” value at IL-6 [2] (all concentrations tested, IL-6 incubated with HOCl and quenched before addition to cells) is “significantly reduced luminescence”. The Result/Behavior result with mouse [3] and with mouse [4] was “No change” in each case. Besides, the Result/Histopathology entry in the data set on mouse [3] and in the data set on mouse [4] was “No” each time. The serious adverse effects result in the data set with human subjects is “No serious adverse effects”. In the data set on human subjects (disappeared upon cessation of exposure), the “minor complaints (nose irritation, slight impact on ease of deep breathing)” value is recorded as “approximately 3%”.

The record behind these values is patent publication US20240408132A1, “HYPOHALOUS ACIDS FOR TREATING INFLAMMATORY DISEASES AND INHIBITING GROWTH OF MALIGNANCIES” (BT Manufacturing, LLC, priority 2020, published 2024).
